In this assay the test system is Mus musculus. The experiment in a line: Analgesic activity against acetic acid-induced Kunming writhing mouse model assessed as inhibition of writhing at 10 mg/kg, sc pretreated with compound for 15 mins followed by acetic acid addition and measured after 15 mins relative to control. The format is functional. The settings on record: 0.5 h, time 30 min. Background: In writhing tests, fewer writhes than in controls are read as antinociception.

By inhibition in vivo is commonly meant the share of the control response that was lost under treatment.

Consider `CCN1C[C@]2(OC(=O)c3ccccc3NS(=O)(=O)c3ccccc3[N+](=O)[O-])CC[C@H](OC)[C@]34C1[C@H](C[C@H]23)[C@@]1(O)C[C@H](OC)[C@H]2C[C@@H]4[C@]1(O)[C@H]2OC`, for which the inhibition in vivo at 10 mg/kg came to 58.5%.

Regarding `CCN1C[C@]2(OC(=O)c3ccccc3NS(=O)(=O)c3cccs3)CC[C@H](OC)[C@]34C1[C@H](C[C@H]23)[C@@]1(O)C[C@H](OC)[C@H]2C[C@@H]4[C@]1(O)[C@H]2OC`, the inhibition in vivo at 10 mg/kg is 1%.

Regarding `CCN1C[C@]2(OC(=O)c3ccccc3NS(=O)(=O)c3cccc(C(F)(F)F)c3)CC[C@H](OC)[C@]34C1[C@H](C[C@H]23)[C@@]1(O)C[C@H](OC)[C@H]2C[C@@H]4[C@]1(O)[C@H]2OC`, the inhibition in vivo at 10 mg/kg came to 12.8%.

For `CCN1C[C@]2(OC(=O)c3ccccc3NS(=O)(=O)c3cccc(C)c3)CC[C@H](OC)[C@]34C1[C@H](C[C@H]23)[C@@]1(O)C[C@H](OC)[C@H]2C[C@@H]4[C@]1(O)[C@H]2OC`, the inhibition in vivo at 10 mg/kg came out at 52.1%.

`CCN1C[C@]2(OC(=O)c3ccccc3NS(=O)(=O)c3ccc(Cl)cc3)CC[C@H](OC)[C@]34C1[C@H](C[C@H]23)[C@@]1(O)C[C@H](OC)[C@H]2C[C@@H]4[C@]1(O)[C@H]2OC`: the inhibition in vivo at 10 mg/kg stood at 11.7%.

Regarding `CCN1C[C@]2(OC(=O)c3ccccc3NS(=O)(=O)c3cc(F)c(F)cc3F)CC[C@H](OC)[C@]34C1[C@H](C[C@H]23)[C@@]1(O)C[C@H](OC)[C@H]2C[C@@H]4[C@]1(O)[C@H]2OC`, the inhibition in vivo at 10 mg/kg stood at 26%.

On to `CCN1C[C@]2(OC(=O)c3ccccc3NS(=O)(=O)c3ccc(Br)cc3)CC[C@H](OC)[C@]34C1[C@H](C[C@H]23)[C@@]1(O)C[C@H](OC)[C@H]2C[C@@H]4[C@]1(O)[C@H]2OC`, for which the inhibition in vivo at 10 mg/kg is 11.4%.

In the case of `CCN1C[C@]2(OC(=O)c3ccccc3NS(=O)(=O)Cc3ccc([N+](=O)[O-])cc3)CC[C@H](OC)[C@]34C1[C@H](C[C@H]23)[C@@]1(O)C[C@H](OC)[C@H]2C[C@@H]4[C@]1(O)[C@H]2OC`, the inhibition in vivo at 10 mg/kg is 42.4%.

Turning to `CCN1C[C@]2(OC(=O)c3ccccc3NS(=O)(=O)c3cccc([N+](=O)[O-])c3)CC[C@H](OC)[C@]34C1[C@H](C[C@H]23)[C@@]1(O)C[C@H](OC)[C@H]2C[C@@H]4[C@]1(O)[C@H]2OC`, the inhibition in vivo at 10 mg/kg was 6.7%.

For `CCN1C[C@]2(OC(=O)c3ccccc3NS(=O)(=O)c3ccc(Cl)s3)CC[C@H](OC)[C@]34C1[C@H](C[C@H]23)[C@@]1(O)C[C@H](OC)[C@H]2C[C@@H]4[C@]1(O)[C@H]2OC`, the inhibition in vivo at 10 mg/kg stood at 31.3%.

In the case of `CCN1C[C@]2(OC(=O)c3ccccc3NS(=O)(=O)c3cc(OC)ccc3OC)CC[C@H](OC)[C@]34C1[C@H](C[C@H]23)[C@@]1(O)C[C@H](OC)[C@H]2C[C@@H]4[C@]1(O)[C@H]2OC`, the inhibition in vivo at 10 mg/kg came to 65.8%.

For `CCN1C[C@]2(OC(=O)c3ccccc3NS(=O)(=O)c3c(C)cc(C)cc3C)CC[C@H](OC)[C@]34C1[C@H](C[C@H]23)[C@@]1(O)C[C@H](OC)[C@H]2C[C@@H]4[C@]1(O)[C@H]2OC`, the inhibition in vivo at 10 mg/kg was 52.1%.

On to `CCN1C[C@]2(OC(=O)c3ccccc3NS(=O)(=O)c3ccccc3Br)CC[C@H](OC)[C@]34C1[C@H](C[C@H]23)[C@@]1(O)C[C@H](OC)[C@H]2C[C@@H]4[C@]1(O)[C@H]2OC`, for which the inhibition in vivo at 10 mg/kg came to 24.7%.

On to `CCN1C[C@]2(OC(=O)c3ccccc3NS(=O)(=O)c3ccccc3Cl)CC[C@H](OC)[C@]34C1[C@H](C[C@H]23)[C@@]1(O)C[C@H](OC)[C@H]2C[C@@H]4[C@]1(O)[C@H]2OC`, for which the inhibition in vivo at 10 mg/kg was 64.3%.

Regarding `CCN1C[C@]2(OC(=O)c3ccccc3NS(=O)(=O)c3cccc(F)c3)CC[C@H](OC)[C@]34C1[C@H](C[C@H]23)[C@@]1(O)C[C@H](OC)[C@H]2C[C@@H]4[C@]1(O)[C@H]2OC`, the inhibition in vivo at 10 mg/kg came to 50.2%.

On to `CCN1C[C@]2(OC(=O)c3ccccc3NS(=O)(=O)c3ccc(OC)cc3OC)CC[C@H](OC)[C@]34C1[C@H](C[C@H]23)[C@@]1(O)C[C@H](OC)[C@H]2C[C@@H]4[C@]1(O)[C@H]2OC`, for which the inhibition in vivo at 10 mg/kg was 34.9%.

Turning to `CCN1C[C@]2(OC(=O)c3ccccc3NS(=O)(=O)c3ccc(F)cc3F)CC[C@H](OC)[C@]34C1[C@H](C[C@H]23)[C@@]1(O)C[C@H](OC)[C@H]2C[C@@H]4[C@]1(O)[C@H]2OC`, the inhibition in vivo at 10 mg/kg is 27.2%.

With `CCN1C[C@]2(OC(=O)c3ccccc3NS(=O)(=O)c3cccc(Br)c3)CC[C@H](OC)[C@]34C1[C@H](C[C@H]23)[C@@]1(O)C[C@H](OC)[C@H]2C[C@@H]4[C@]1(O)[C@H]2OC`, the inhibition in vivo at 10 mg/kg amounted to 13%.

On to `CCN1C[C@]2(OC(=O)c3ccccc3NS(=O)(=O)c3cc(Cl)ccc3OC)CC[C@H](OC)[C@]34C1[C@H](C[C@H]23)[C@@]1(O)C[C@H](OC)[C@H]2C[C@@H]4[C@]1(O)[C@H]2OC`, for which the inhibition in vivo at 10 mg/kg was found to be 43.2%.

With `CCN1C[C@]2(OC(=O)c3ccccc3NS(=O)(=O)c3ccc(OC)cc3)CC[C@H](OC)[C@]34C1[C@H](C[C@H]23)[C@@]1(O)C[C@H](OC)[C@H]2C[C@@H]4[C@]1(O)[C@H]2OC`, the inhibition in vivo at 10 mg/kg was found to be 16.8%.

Consider `CCN1C[C@]2(OC(=O)c3ccccc3NS(=O)(=O)c3ccc(OC)c(OC)c3)CC[C@H](OC)[C@]34C1[C@H](C[C@H]23)[C@@]1(O)C[C@H](OC)[C@H]2C[C@@H]4[C@]1(O)[C@H]2OC`, for which the inhibition in vivo at 10 mg/kg was 13.7%.

Take `CCN1C[C@]2(OC(=O)c3ccccc3NS(=O)(=O)c3ccccc3F)CC[C@H](OC)[C@]34C1[C@H](C[C@H]23)[C@@]1(O)C[C@H](OC)[C@H]2C[C@@H]4[C@]1(O)[C@H]2OC`: the inhibition in vivo at 10 mg/kg came to 60.3%.

Consider `CCN1C[C@]2(OC(=O)c3ccccc3NS(=O)(=O)c3ccc(N(C)C)cc3)CC[C@H](OC)[C@]34C1[C@H](C[C@H]23)[C@@]1(O)C[C@H](OC)[C@H]2C[C@@H]4[C@]1(O)[C@H]2OC`, for which the inhibition in vivo at 10 mg/kg turned out to be 23%.

With `CCN1C[C@]2(OC(=O)c3ccccc3NS(=O)(=O)c3ccc(C)cc3)CC[C@H](OC)[C@]34C1[C@H](C[C@H]23)[C@@]1(O)C[C@H](OC)[C@H]2C[C@@H]4[C@]1(O)[C@H]2OC`, the inhibition in vivo at 10 mg/kg worked out at 27.7%.

On to `CCN1C[C@]2(OC(=O)c3ccccc3NS(=O)(=O)c3ccccc3C#N)CC[C@H](OC)[C@]34C1[C@H](C[C@H]23)[C@@]1(O)C[C@H](OC)[C@H]2C[C@@H]4[C@]1(O)[C@H]2OC`, for which the inhibition in vivo at 10 mg/kg was found to be 53.9%.

Consider `CCN1C[C@]2(OC(=O)c3ccccc3NS(=O)(=O)c3cccc(C#N)c3)CC[C@H](OC)[C@]34C1[C@H](C[C@H]23)[C@@]1(O)C[C@H](OC)[C@H]2C[C@@H]4[C@]1(O)[C@H]2OC`, for which the inhibition in vivo at 10 mg/kg is 47.4%.

As for `CCN1C[C@]2(OC(=O)c3ccccc3NS(=O)(=O)c3ccc(F)cc3)CC[C@H](OC)[C@]34C1[C@H](C[C@H]23)[C@@]1(O)C[C@H](OC)[C@H]2C[C@@H]4[C@]1(O)[C@H]2OC`, the inhibition in vivo at 10 mg/kg was found to be 14.7%.

`CCN1C[C@]2(OC(=O)c3ccccc3NS(=O)(=O)c3ccc(C(F)(F)F)cc3)CC[C@H](OC)[C@]34C1[C@H](C[C@H]23)[C@@]1(O)C[C@H](OC)[C@H]2C[C@@H]4[C@]1(O)[C@H]2OC`: the inhibition in vivo at 10 mg/kg came to 19.4%.

`CCN1C[C@]2(OC(=O)c3ccccc3NS(=O)(=O)c3ccc(C#N)cc3)CC[C@H](OC)[C@]34C1[C@H](C[C@H]23)[C@@]1(O)C[C@H](OC)[C@H]2C[C@@H]4[C@]1(O)[C@H]2OC`: the inhibition in vivo at 10 mg/kg stood at 21.4%.

For the compound `CCN1C[C@]2(OC(=O)c3ccccc3NS(=O)(=O)Cc3ccccc3)CC[C@H](OC)[C@]34C1[C@H](C[C@H]23)[C@@]1(O)C[C@H](OC)[C@H]2C[C@@H]4[C@]1(O)[C@H]2OC`, the inhibition in vivo at 10 mg/kg is 43.8%.

Take `CCN1C[C@]2(OC(=O)c3ccccc3NS(=O)(=O)c3ccc(-c4ccccc4)cc3)CC[C@H](OC)[C@]34C1[C@H](C[C@H]23)[C@@]1(O)C[C@H](OC)[C@H]2C[C@@H]4[C@]1(O)[C@H]2OC`: the inhibition in vivo at 10 mg/kg is 16.1%.

As to `CCN1C[C@]2(OC(=O)c3ccccc3NS(=O)(=O)c3ccccc3C(F)(F)F)CC[C@H](OC)[C@]34C1[C@H](C[C@H]23)[C@@]1(O)C[C@H](OC)[C@H]2C[C@@H]4[C@]1(O)[C@H]2OC`, the inhibition in vivo at 10 mg/kg worked out at 55.2%.

With `CCN1C[C@]2(OC(=O)c3ccccc3NS(=O)(=O)c3cccc(OC)c3)CC[C@H](OC)[C@]34C1[C@H](C[C@H]23)[C@@]1(O)C[C@H](OC)[C@H]2C[C@@H]4[C@]1(O)[C@H]2OC`, the inhibition in vivo at 10 mg/kg amounted to 37.1%.

Take `CCN1C[C@]2(OC(=O)c3ccccc3NS(=O)(=O)c3cc(F)cc(F)c3)CC[C@H](OC)[C@]34C1[C@H](C[C@H]23)[C@@]1(O)C[C@H](OC)[C@H]2C[C@@H]4[C@]1(O)[C@H]2OC`: the inhibition in vivo at 10 mg/kg was found to be 37.5%.

As to `CCN1C[C@]2(OC(=O)c3ccccc3NS(=O)(=O)c3cccc(Cl)c3)CC[C@H](OC)[C@]34C1[C@H](C[C@H]23)[C@@]1(O)C[C@H](OC)[C@H]2C[C@@H]4[C@]1(O)[C@H]2OC`, the inhibition in vivo at 10 mg/kg is 33.1%.

Take `CCN1C[C@]2(OC(=O)c3ccccc3NS(=O)(=O)c3ccc(F)c(F)c3)CC[C@H](OC)[C@]34C1[C@H](C[C@H]23)[C@@]1(O)C[C@H](OC)[C@H]2C[C@@H]4[C@]1(O)[C@H]2OC`: the inhibition in vivo at 10 mg/kg was 28.3%.

Consider `CCN1C[C@]2(OC(=O)c3ccccc3NS(=O)(=O)c3cc(F)ccc3F)CC[C@H](OC)[C@]34C1[C@H](C[C@H]23)[C@@]1(O)C[C@H](OC)[C@H]2C[C@@H]4[C@]1(O)[C@H]2OC`, for which the inhibition in vivo at 10 mg/kg was 45.1%.

For the origin of these results see ChEMBL document CHEMBL5352433, “Design, synthesis, and biological evaluation of low-toxic lappaconitine derivatives as potential analgesics” (Eur J Med Chem, 2022).
